{"source": "patent US9808434B2", "about": "“Compound for treating cancer and diabetes” (CITY OF HOPE, priority 2011, dated 2017)", "key": {"B16 mouse melanoma tumor": {"test_system": "B16 mouse melanoma tumor", "assay": "Western-blot of signaling proteins in B16 tumor tissue lysates", "format": "in vivo", "settings": "band density ratio", "experimental": "Western-blot analyses of signaling proteins in tumor tissue lysates in control and COH-SR4 treated groups were shown in FIG. 58. Crude fraction (about 50 μg) and WB with various antibodies were used."}, "AMPK, ACC": {"test_system": "AMPK, ACC", "assay": "AMP:ATP ratio and AMPK/ACC phosphorylation in liver of db/db mice", "format": "in vivo, mouse", "settings": "5 weeks", "experimental": "ATP production from cells treated with test compounds were measured using the Luminescent ATP Detection Assay Kit. AMP, ATP and ADP were measured by UV-HPLC.\nAll animal experiments were carried out in accordance with the protocols approved by the Institutional Animal Care and Use Committee of the City of Hope. Nine-week old male C57BL/6J mice fed on high fat diet (HFD, 60% fat) and 10-week old db/db mice were given COH-SR4 (5 mg/kg B.W.) or vehicle (corn oil) via oral gavage every other day for six and five weeks, respectively. Oral glucose tolerance test was performed on animals after an overnight fast. All other metabolic parameters were measured at the end of study. Liver samples were stained with H&E and Oil Red O.\nTotal intracellular ATP production in cells treated with either 5 μM COH-SR4 or 5 μM FCCP was measured by bioluminescence assay and expressed as percentage of time-matched vehicle (DMSO) control (FIG. 84A). Intracellular AMP: ATP ratios increased in HepG2 liver carcinoma cells following 1 h treatment with either 5 μM COH-SR4 or 5 μM FCCP (FIG. 84B) and in liver of db/db mice treated with COH-SR4 (5 mg/kg B.W.) for 5 weeks (FIG. 84C). All data represented are mean±SEM, *P<0.05.\nTreatment with the AMPK inhibitor Compound C (20 μM) diminished AMPK activation and ACC phosphorylation by either uncoupler COH-SR4 or FCCP (FIG. 84F)."}, "H358 cells": {"test_system": "H358 cells", "assay": "MTT assay, H358", "format": "cell-based", "settings": "Homo sapiens, NCI-H358, 48 h", "experimental": "Cell density measurements were performed using a hemocytometer to count reproductive cells resistant to staining with trypan blue. Approximately 20,000 cells were plated into each well of 96-well flat-bottomed micro-titer plates. After 12 h or 24 h incubation at 37° C., medium containing either COH-SR4 (ranging 0-200 μM) or elesclomol (ranging 0-20 μM) were added to the cells. After 24 h, 48 h or 96 h incubation, 20 μL of 5 mg/mL MTT were introduced to each well and incubated for 2 h. The plates were centrifuged and medium was decanted. Cells were subsequently dissolved in 100 μl DMSO with gentle shaking for 2 h at room temperature, followed by measurement of OD570 (91).\nThe effect of COH-SR4 was first examined in a NCI panel of cancer cell lines, the results of which indicated good activity of COH-SR4 towards lung cancer (FIG. 78A). […] Values are presented as mean±SD from two separate determinations with eight replicates each (n=16) (FIG. 78B). […] Standard colony-forming assay was performed and the colonies were counted using Innotech Alpha Imager HP. […] TUNEL assay was performed using Promega fluorescence detection kit and examined using Zeiss LSM 510 META laser-scanning fluorescence microscope with filters 520 and 620 nm. […]"}, "A2058 human melanoma": {"test_system": "A2058 human melanoma", "format": "in vivo", "experimental": "For melanoma studies, C57B mice (for syngeneic B16-F0 mouse melanoma model) and Hsd: Athymic nude nu/nu mice (for A2058 human melanoma mouse xenografts model), were obtained from Harlan, Indianapolis, Ind. All animal experiments were carried out in accordance with a protocol approved by the Institutional Animal Care and Use Committee (IACUC). […] All animals were injected with 2×10^6 melanoma cells suspensions in 100 μL of PBS, subcutaneously into one flank of each mouse. Treatment was started 10 days after the implantation to see palpable tumor growth. […] Control groups were treated with 200 μL corn oil by oral gavage alternate days. Animals were examined daily for signs of tumor growth. Tumors were measured in two dimensions using calipers. Photographs of animals were taken at day 1, day 10, day 14, day 18, day 20, day 30, and day 51 after subcutaneous injection, are shown for all groups. Photographs of tumors were also taken at day 20 (for syngeneic model), and at day 51 (for xenograft model).\nC57B mice (for syngeneic B16-F0 mouse melanoma model) and Hsd: Athymic nude nu/nu mice (for A2058 human melanoma mouse xenografts model), were used for testing the impact of oral administration of COH-SR4 on melanoma progression in vivo models. […] All animals were injected with 2×10^6 melanoma cells suspensions in 100 μL of PBS, subcutaneously into one flank of each mouse. Treatment was started 10 days after the implantation of melanoma cells. […] Control groups were treated with 200 μL corn oil by oral gavage alternate day. Animals were examined daily for signs of tumor growth and body weights were recorded. […] Animals were examined daily for signs of tumor growth. Tumors were measured in two dimensions using calipers. […] Weights and photographs of tumors were also taken at day 20 (for syngeneic model), and at day 51 (for xenograft model) (FIG. 70B). […] Tumors were measured in two dimensions using calipers and time-course analysis of tumor regression was performed during the study. […]"}}, "data": [{"smiles": "O=C(Nc1cc(Cl)cc(Cl)c1)Nc1cc(Cl)cc(Cl)c1", "note": "[COH-SR4, 1,3-bis(3,5-dichlorophenyl) urea]", "values": [{"measurement": "Akt, ratio COH-SR4 group/Control Group", "setting": "B16 mouse melanoma tumor", "result": 0.84}, {"measurement": "Bcl2, ratio COH-SR4 group/Control Group", "setting": "B16 mouse melanoma tumor", "result": 0.39}, {"measurement": "Bim, ratio COH-SR4 group/Control Group", "setting": "B16 mouse melanoma tumor", "result": 5.8}, {"measurement": "CDK4, ratio COH-SR4 group/Control Group", "setting": "B16 mouse melanoma tumor", "result": 0.29}, {"measurement": "Cyclin B1, ratio COH-SR4 group/Control Group", "setting": "B16 mouse melanoma tumor", "result": 0.32}, {"measurement": "Fibronectin, ratio COH-SR4 group/Control Group", "setting": "B16 mouse melanoma tumor", "result": 0.22}, {"measurement": "Vimentin, ratio COH-SR4 group/Control Group", "setting": "B16 mouse melanoma tumor", "result": 0.39}, {"measurement": "pAMPK, ratio COH-SR4 group/Control Group", "setting": "B16 mouse melanoma tumor", "result": 3.1}, {"measurement": "pAkt, ratio COH-SR4 group/Control Group", "setting": "B16 mouse melanoma tumor", "result": 0.32}, {"measurement": "intracellular AMP:ATP ratios in liver", "setting": "AMPK, ACC; 5 mg/kg B.W.", "result": "increased"}, {"measurement": "AMPK and ACC phosphorylations in liver", "setting": "AMPK, ACC", "result": "Increased AMPK and ACC phosphorylations"}, {"measurement": "IC50", "setting": "H358 cells", "result": "2.1 ± 0.2", "unit": "µM"}, {"measurement": "tumor regression and toxicity at higher dosage", "setting": "A2058 human melanoma; 20 mg/kg b.w.", "result": "no further improvement in tumor regression and no toxicity was observed"}, {"measurement": "tumor weight", "setting": "A2058 human melanoma; day 51, control 1.91±0.3 g", "result": "0.7 ± 0.1", "unit": "g"}, {"measurement": "survival (still alive)", "setting": "A2058 human melanoma; vehicle censored by day 51±3", "result": "≥ 88", "unit": "days"}]}]}
